According to the NIST ThermoML archive (doi:10.1021/je500498m):

Assay: xn = mol fraction of the nth substance listed
Conditions: Liquid; for mass density / viscosity: 101 kPa; for mass density: Vibrating tube method; for speed of sound: 100 kPa, Sing-around technique in a fixed-path interferometer; for viscosity: Falling or rolling sphere viscometry

CCCCCCCCCCCCCCCC [hexadecane] + CCc1ccccc1
Conditions | mass density [kg/m3] | speed of sound [m/s] | viscosity [mPa·s]
323.15 K, x2 = 0.6001 | 784.14 | – | –
323.15 K, x2 = 0.7002 | 793.6 | – | –
323.15 K, x2 = 0.8001 | 805.42 | – | –
323.15 K, x2 = 0.9 | 820.29 | – | –
333.15 K, x2 = 0 | 745.79 | 1212 | 1.53
333.15 K, x2 = 0.1007 | 749.19 | 1207.7 | 1.4
333.15 K, x2 = 0.2 | 753.09 | 1203.4 | 1.28
333.15 K, x2 = 0.3002 | 757.62 | 1198.8 | 1.15
333.15 K, x2 = 0.4013 | 762.96 | 1193.6 | 1.03
333.15 K, x2 = 0.5002 | 769.13 | 1188.6 | 0.92
333.15 K, x2 = 0.6001 | 776.51 | 1183.8 | 0.81
333.15 K, x2 = 0.7002 | 785.74 | 1179.2 | 0.7
333.15 K, x2 = 0.8001 | 797.18 | 1175.5 | 0.6
333.15 K, x2 = 0.9 | 811.8 | 1173.9 | 0.52
343.15 K, x2 = 0 | 738.9 | – | 1.31
343.15 K, x2 = 0.1007 | 742.2 | – | 1.21
343.15 K, x2 = 0.2 | 746 | – | 1.1
343.15 K, x2 = 0.3002 | 750.4 | – | 1.01
343.15 K, x2 = 0.4013 | 755.6 | – | 0.9
343.15 K, x2 = 0.5002 | 761.6 | – | 0.81
343.15 K, x2 = 0.6001 | 768.9 | – | 0.71
343.15 K, x2 = 0.7002 | 777.9 | – | 0.62
343.15 K, x2 = 0.8001 | 789 | – | 0.54
343.15 K, x2 = 0.9 | 803.3 | – | 0.47
353.15 K, x2 = 0 | 731.8 | – | 1.13
353.15 K, x2 = 0.1007 | 735 | – | 1.05
353.15 K, x2 = 0.2 | 738.7 | – | 0.96
353.15 K, x2 = 0.3002 | 743 | – | 0.88
353.15 K, x2 = 0.4013 | 748.1 | – | 0.8
353.15 K, x2 = 0.5002 | 754 | – | 0.71
353.15 K, x2 = 0.6001 | 761.1 | – | 0.64
353.15 K, x2 = 0.7002 | 769.8 | – | 0.56
353.15 K, x2 = 0.8001 | 780.7 | – | 0.49
353.15 K, x2 = 0.9 | 794.5 | – | 0.43
363.15 K, x2 = 0 | 724.7 | – | 0.99
363.15 K, x2 = 0.1007 | 727.8 | – | 0.92
363.15 K, x2 = 0.2 | 731.5 | – | 0.85
363.15 K, x2 = 0.3002 | 735.6 | – | 0.78
363.15 K, x2 = 0.4013 | 740.6 | – | 0.7
363.15 K, x2 = 0.5002 | 746.3 | – | 0.63
363.15 K, x2 = 0.6001 | 753.1 | – | 0.58
363.15 K, x2 = 0.7002 | 761.6 | – | 0.51
363.15 K, x2 = 0.8001 | 772.2 | – | 0.45
363.15 K, x2 = 0.9 | 785.6 | – | 0.39
373.15 K, x2 = 0 | 717.5 | – | 0.87
373.15 K, x2 = 0.1007 | 720.6 | – | 0.82
373.15 K, x2 = 0.2 | 724.1 | – | 0.76
373.15 K, x2 = 0.3002 | 728.1 | – | 0.69
373.15 K, x2 = 0.4013 | 732.9 | – | 0.63
373.15 K, x2 = 0.5002 | 738.4 | – | 0.57
373.15 K, x2 = 0.6001 | 745.1 | – | 0.52
373.15 K, x2 = 0.7002 | 753.3 | – | 0.47
373.15 K, x2 = 0.8001 | 763.6 | – | 0.41
373.15 K, x2 = 0.9 | 776.6 | – | 0.36
